Measurements as given in patent publication US11033539B2, “Compounds of formulas (VII), (VIII), (IX), (XI), (XII), (XIII), and (XIV) as muscarinic receptor 4(M4) antagonists for treating neurological diseases” (Neurocrine Biosciences, Inc., priority 2015, dated 2021).
pKi: −log10 of the molar value.

Molecular target: human M4 receptor (Homo sapiens (Human), UniProt P08173)
Assay: Radioligand (tritiated N-methylscopolamine) binding assay, M4
Conditions: Ki against the M4 receptor; membranes from CHO cells expressing human M4; tritiated N-methylscopolamine 1.5 nM; read-out: Ki
How it was run: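 Compounds were tested at twelve concentrations ranging from 10 μM to […] against 1.5 nM radioligand on CHO cell membranes expressing each subtype. Incubation lasts 90 min at 37 °C in HEPES-buffered saline with Mg2+ and EDTA, pH 7.4, and filtration then separates bound radioligand.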

Chain of human M4 receptor (P08173 whole entry): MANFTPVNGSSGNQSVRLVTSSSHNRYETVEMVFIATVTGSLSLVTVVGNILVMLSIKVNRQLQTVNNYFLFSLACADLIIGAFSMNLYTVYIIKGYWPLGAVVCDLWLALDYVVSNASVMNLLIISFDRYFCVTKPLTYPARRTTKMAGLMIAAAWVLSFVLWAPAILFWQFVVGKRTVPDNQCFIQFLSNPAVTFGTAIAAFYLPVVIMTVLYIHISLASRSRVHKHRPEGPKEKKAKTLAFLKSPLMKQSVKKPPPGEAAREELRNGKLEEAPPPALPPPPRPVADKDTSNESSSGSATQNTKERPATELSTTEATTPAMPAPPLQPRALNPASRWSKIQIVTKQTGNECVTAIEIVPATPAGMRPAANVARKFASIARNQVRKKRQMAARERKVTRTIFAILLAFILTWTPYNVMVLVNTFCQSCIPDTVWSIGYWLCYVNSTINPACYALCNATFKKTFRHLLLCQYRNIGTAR

Question: With `Nc1nc(N2CCN(C(=O)NCCC3CCN(Cc4ccccc4)CC3)CC2)ncc1Cl` [5-33, 4-(4-amino-5-chloropyrimidin-2-yl)-N-[2-(1-benzylpiperidin-4-yl)ethyl]piperazine-1-carboxamide] as the compound, how does the pKi read?
Answer: 7.00 to 8.00

Question: How did the pKi turn out when `C[C@@H]1CN(c2cnc(C(F)(F)F)nc2)C[C@H](C)N1C(=O)NCCC1CCN(Cc2ccccc2)CC1` [22-1, (2R,6S)—N-[2-(1-benzylpiperidin-4-yl)ethyl]-2,6-dimethyl-4-[2-(trifluoromethyl)pyrimidin-5-yl]piperazine-1-carboxamide] was run?
Answer: 7.00 to 8.00

Question: With `COc1cccnc1N1CCN(C(=O)NCCC2CCN(Cc3ccccc3)CC2)[C@H](C)C1` [4-8, (2R)-N-[2-(1-benzylpiperidin-4-yl)ethyl]-4-(3-methoxypyridin-2-yl)-2-methylpiperazine-1-carboxamide] as the compound, how does the pKi read?
Answer: 6.00 to 7.00

Question: `C[C@@H]1CN(c2ncc(C#N)cn2)C[C@H](C)N1C(=O)NCCC1CCN(CC2CCC2)CC1` [21-5] was tested. Which pKi did it give?
Answer: 6.00 to 7.00

Question: How did the pKi turn out when `O=C(NCCC1CCN(Cc2ccccc2)CC1)N1CCN(c2ccc(F)cc2)CC1` [8-35, N-[2-(1-benzylpiperidin-4-yl)ethyl]-4-(4-fluorophenyl)piperazine-1-carboxamide] was run?
Answer: 6.00 to 7.00

Question: With `O=C(NCCC1CCN(Cc2ccccc2)CC1)N1CCC(c2c[nH]c3ccccc23)CC1` [8-30, N-[2-(1-benzylpiperidin-4-yl)ethyl]-4-(1H-indol-3-yl)piperidine-1-carboxamide] as the compound, how does the pKi read?
Answer: 6.00 to 7.00

Question: `O=C(NCCC1CCN(Cc2ccccc2)CC1)[C@@H]1CCN(c2ccc(OC(F)(F)F)cc2)C1` [10-72, (3R)-N-[2-(1-benzylpiperidin-4-yl)ethyl]-1-[4-(trifluoromethoxy)phenyl]pyrrolidine-3-carboxamide] was tested. Which pKi did it give?
Answer: 6.00 to 7.00

Question: `C[C@@H]1CN(c2ccc(F)cc2F)CCN1C(=O)NCCC1CCN(Cc2ccccc2)CC1` [4-33, (2R)-N-[2-(1-benzylpiperidin-4-yl)ethyl]-4-(2,4-difluorophenyl)-2-methylpiperazine-1-carboxamide] was tested. Which pKi did it give?
Answer: 7.00 to 8.00

Question: How did the pKi turn out when `N#Cc1ccc(N2CCC(C(=O)NCCC3CCN(Cc4cccc5c4OCCO5)CC3)CC2)nc1` [11-16, 1-(5-cyanopyridin-2-yl)-N-{2-[1-(2,3-dihydro-1,4-benzodioxin-5-ylmethyl)piperidin-4-yl]ethyl}piperidine-4-carboxamide] was run?
Answer: 6.00 to 7.00

Question: With `C[C@@H]1CN(c2ncccn2)CCN1C(=O)NCCC1CCN(Cc2ccccc2)CC1` [4-64, (2R)-N-[2-(1-benzylpiperidin-4-yl)ethyl]-2-methyl-4-(pyrimidin-2-yl)piperazine-1-carboxamide] as the compound, how does the pKi read?
Answer: 6.00 to 7.00

Question: `O=C(NCCC1CCN(Cc2ccccc2O)CC1)c1ccc(OCc2ccccc2)cc1` [11-3, 4-(benzyloxy)-N-(2-{1-[(2-hydroxyphenyl)methyl]piperidin-4-yl}ethyl)benzamide] was tested. Which pKi did it give?
Answer: 7.00 to 8.00

Question: How did the pKi turn out when `O=C(NCCC1CCN(Cc2ccccc2)CC1)C1(O)CCN(c2ccc(OC(F)(F)F)c(F)c2)CC1` [10-41, N-[2-(1-benzylpiperidin-4-yl)ethyl]-1-[3-fluoro-4-(trifluoromethoxy)phenyl]-4-hydroxypiperidine-4-carboxamide] was run?
Answer: 7.00 to 8.00

Question: How did the pKi turn out when `C[C@@H]1CN(c2cc(F)c(F)cc2F)C[C@H](C)N1C(=O)NCCC1CCN(Cc2ccccc2)CC1` [22-6] was run?
Answer: 7.00 to 8.00

Question: With `O=C(NCCC1CCN(Cc2ccccc2)CC1)N1CCN(c2cccc(Cl)c2)CC1` [8-11, N-[2-(1-benzylpiperidin-4-yl)ethyl]-4-(3-chlorophenyl)piperazine-1-carboxamide] as the compound, how does the pKi read?
Answer: 7.00 to 8.00

Question: How did the pKi turn out when `C[C@@H]1CN(c2ncc(C#N)cn2)C[C@H](C)N1C(=O)NCCC1CCN(Cc2ccccn2)CC1` [21-3] was run?
Answer: 6.00 to 7.00

Question: How did the pKi turn out when `N#Cc1cc2ccccc2nc1-c1cc(C(=O)NCCC2CCN(Cc3ccccc3)CC2)ccc1Cl` [9-60, N-[2-(1-benzylpiperidin-4-yl)ethyl]-4-chloro-3-(3-cyanoquinolin-2-yl)benzamide] was run?
Answer: 6.00 to 7.00

Question: `N#Cc1cc(F)cc(N2CCN(C(=O)NCCC3CCN(Cc4ccccc4)CC3)CC2)c1` [8-18, N-[2-(1-benzylpiperidin-4-yl)ethyl]-4-(3-cyano-5-fluorophenyl)piperazine-1-carboxamide] was tested. Which pKi did it give?
Answer: 7.00 to 8.00

Question: `N#Cc1ccnc(N2CCC(C(=O)NCCC3CCN(Cc4ccccc4)CC3)CC2)c1` [10-66, N-[2-(1-benzylpiperidin-4-yl)ethyl]-1-(4-cyanopyridin-2-yl)piperidine-4-carboxamide] was tested. Which pKi did it give?
Answer: 6.00 to 7.00

Question: `O=C(NCCC1CCN(Cc2ccccc2)CC1)C1(F)CCN(c2ccccc2OC(F)(F)F)CC1` [10-17, N-[2-(1-benzylpiperidin-4-yl)ethyl]-4-fluoro-1-[2-(trifluoromethoxy)phenyl]piperidine-4-carboxamide] was tested. Which pKi did it give?
Answer: 6.00 to 7.00

Question: With `Cc1c(C(=O)NCCC2CCN(Cc3cccc4c3OCCO4)CC2)cnc2cc(-c3ccccc3)nn12` [19-2] as the compound, how does the pKi read?
Answer: 7.00 to 8.00

Question: How did the pKi turn out when `Cn1cccc1CN1CCC(CCNC(=O)C2CCN(c3ccc(OC(F)(F)F)cc3)CC2)CC1` [11-15, N-(2-{1-[(1-methyl-1H-pyrrol-2-yl)methyl]piperidin-4-yl}ethyl)-1-[4-(trifluoromethoxy)phenyl]piperidine-4-carboxamide] was run?
Answer: 6.00 to 7.00

Question: How did the pKi turn out when “N-{2-[1-(2-hydroxy-1-phenylethyl)piperidin-4-yl]ethyl}-1-[4-(trifluoromethoxy)phenyl]piperidine-4-carboxamide [11-12]” was run?
Answer: 6.00 to 7.00

Question: How did the pKi turn out when `O=C(NCCC1CCN(CC2CCCCC2)CC1)C1CCN(c2ccc(OC(F)(F)F)cc2)CC1` [11-21, N-{2-[1-(cyclohexylmethyl)piperidin-4-yl]ethyl}-1-[4-(trifluoromethoxy)phenyl]piperidine-4-carboxamide] was run?
Answer: 6.00 to 7.00

Question: With `O=C(NCCC1CCN(Cc2ccccc2)CC1)C1CCN(c2nccc(C(F)(F)F)n2)CC1` [10-30, N-[2-(1-benzylpiperidin-4-yl)ethyl]-1-[4-(trifluoromethyl)pyrimidin-2-yl]piperidine-4-carboxamide] as the compound, how does the pKi read?
Answer: 7.00 to 8.00

Question: With `O=C(NCCC1CCN(Cc2ccccc2)CC1)N1CCC(c2ccc(Cl)cc2)CC1` [8-4, N-[2-(1-benzylpiperidin-4-yl)ethyl]-4-(4-chlorophenyl)piperidine-1-carboxamide] as the compound, how does the pKi read?
Answer: 7.00 to 8.00

Question: How did the pKi turn out when `O=C(NCCC1CCN(Cc2ccccc2)CC1)C1(O)CCN(c2cc(F)c(F)c(F)c2)CC1` [10-40, N-[2-(1-benzylpiperidin-4-yl)ethyl]-4-hydroxy-1-(3,4,5-trifluorophenyl)piperidine-4-carboxamide] was run?
Answer: 7.00 to 8.00

Question: `C[C@@H]1CN(c2cnc(C#N)nc2)C[C@H](C)N1C(=O)NCCC1CCN(Cc2ccccc2)CC1` [23-1, (2S,6R)-N-[2-(1-benzylpiperidin-4-yl)ethyl]-4-(2-cyanopyrimidin-5-yl)-2,6-dimethylpiperazine-1-carboxamide] was tested. Which pKi did it give?
Answer: 6.00 to 7.00

Question: With `COc1ccnc(N2CCN(C(=O)NCCC3CCN(Cc4ccccc4)CC3)[C@H](C)C2)n1` [4-2, (2R)-N-[2-(1-benzylpiperidin-4-yl)ethyl]-4-(4-methoxypyrimidin-2-yl)-2-methylpiperazine-1-carboxamide] as the compound, how does the pKi read?
Answer: 6.00 to 7.00

Question: With `COc1ccc(N2CCC(C(=O)NCCC3CCN(Cc4ccccc4)CC3)CC2)cc1OC(F)(F)F` [10-33, N-[2-(1-benzylpiperidin-4-yl)ethyl]-1-[4-methoxy-3-(trifluoromethoxy)phenyl]piperidine-4-carboxamide] as the compound, how does the pKi read?
Answer: 7.00 to 8.00

Question: `C[C@@H]1CN(c2cnc(C(F)(F)F)nc2)C[C@H](C)N1C(=O)NCCC1CCN(Cc2cccc(F)c2)CC1` [6-51, (2R,6S)-N-(2-{1-[(3-fluorophenyl)methyl]piperidin-4-yl}ethyl)-2,6-dimethyl-4-[2-(trifluoromethyl)pyrimidin-5-yl]piperazine-1-carboxamide] was tested. Which pKi did it give?
Answer: 7.00 to 8.00

Question: With `C[C@@H]1CN(c2ncc(C(F)(F)F)cn2)CCN1C(=O)NCCC1CCN(Cc2ccc(C#N)cc2)CC1` [6-41, (2R)-N-(2-{1-[(4-cyanophenyl)methyl]piperidin-4-yl}ethyl)-2-methyl-4-[5-(trifluoromethyl)pyrimidin-2-yl]piperazine-1-carboxamide] as the compound, how does the pKi read?
Answer: 7.00 to 8.00

Question: `COc1ncccc1-c1cc2ncc(C(=O)NCCC3CCN(Cc4ccccc4)CC3)c(C)n2n1` [18-14] was tested. Which pKi did it give?
Answer: 7.00 to 8.00

Question: `COc1cc(N2CCN(C(=O)NCCC3CCN(Cc4ccccc4)CC3)[C@H](C)C2)ccn1` [22-16] was tested. Which pKi did it give?
Answer: 7.00 to 8.00

Question: With `O=C(NCCC1CCN(Cc2ccccc2)CC1)N1CCC(n2nnc3ccccc32)CC1` [8-46, 4-(1H-1,2,3-benzotriazol-1-yl)-N-[2-(1-benzylpiperidin-4-yl)ethyl]piperidine-1-carboxamide] as the compound, how does the pKi read?
Answer: 6.00 to 7.00

Question: How did the pKi turn out when `O=C(NCCC1CCN(Cc2cccnc2F)CC1)c1ccc(Oc2ccccc2)cc1` [11-2, N-(2-{1-[(2-fluoropyridin-3-yl)methyl]piperidin-4-yl}ethyl)-4-phenoxybenzamide] was run?
Answer: 7.00 to 8.00

Question: How did the pKi turn out when `C[C@@H]1CN(c2cc(F)cc(C#N)c2)CCN1C(=O)NCC[C@H]1CCN(Cc2ccccc2)C1` [7-8, (2R)-N-{2-[(3S)-1-benzylpyrrolidin-3-yl]ethyl}-4-(3-cyano-5-fluorophenyl)-2-methylpiperazine-1-carboxamide] was run?
Answer: 6.00 to 7.00

Question: `O=C(OCCC1CCN(Cc2ccccc2)CC1)N1CCC(O)(c2ccccc2)CC1` [12-7, 2-(1-benzylpiperidin-4-yl)ethyl 4-hydroxy-4-phenylpiperidine-1-carboxylate] was tested. Which pKi did it give?
Answer: 6.00 to 7.00

Question: How did the pKi turn out when `C[C@@H]1CN(c2ccc(C#N)cc2)CCN1C(=O)NCCC1CCN(Cc2ccccc2)CC1` [4-25, (2R)-N-[2-(1-benzylpiperidin-4-yl)ethyl]-4-(4-cyanophenyl)-2-methylpiperazine-1-carboxamide] was run?
Answer: 7.00 to 8.00

Question: With `CC1(C(=O)NCCC2CCN(Cc3ccccc3)CC2)CCN(c2cccc(OC(F)(F)F)c2)CC1` [10-25, N-[2-(1-benzylpiperidin-4-yl)ethyl]-4-methyl-1-[3-(trifluoromethoxy)phenyl]piperidine-4-carboxamide] as the compound, how does the pKi read?
Answer: 7.00 to 8.00

Question: With `COC1(C(=O)NCCC2CCN(Cc3ccccc3)CC2)CCN(c2ccccc2OC(F)(F)F)CC1` [10-75, N-[2-(1-benzylpiperidin-4-yl)ethyl]-4-methoxy-1-[2-(trifluoromethoxy)phenyl]piperidine-4-carboxamide] as the compound, how does the pKi read?
Answer: 6.00 to 7.00
